Data reported in patent US20150018384A1, “TREATMENT FOR HIGH CHOLESTEROL” (FibroGen, Inc., priority 2012, published 2015).
pIC50: −log10 of the molar value. Marks after values point to notes of the source that are not given here.

Legend:
healthy subjects = experiment: Circulating total cholesterol and LDL-C in healthy subjects dosed twice per week; assay type: in vivo, human; details: 1.88 mg/Kg orally twice per week, average (SD), n=6
Procedure: Subjects were fasted overnight prior on subsequent dosing days. Overnight fasting was not required on non-dosing days. The samples had been stored frozen at −70° C. for up to 6 years, and had undergone up to two thaw/freeze cycles prior to testing. Results are presented separately for samples collected during fasting: Day 1 (0, 1, 2 hrs post-dose), Day 2 (24 hrs), Day 3 (72 hrs), Day 7 (168 hrs), Day 10 (240 hrs) and Day 17 (408 hours).
Samples were analyzed using validated assays on a Roche Modular system. Total cholesterol was measured using the CHOD-PAP reagent from Roche, Cat. No. 11875540216. HDL cholesterol was measured using reagents from Polymedco, Cat. No. 9400 (data not shown). LDL cholesterol was measured using the LDL-C plus 2nd generation reagents from Roche, Cat. No. 04711220190. Triglycerides were measured using GPO-PAP reagent from Roche, Cat. No. 11730711216 (data not shown).

[1] = tested on: subjects with end stage renal disease (ESRD); experiment: ESRD subjects switched from epoetin alfa to Compound A or continued on epoetin alfa; assay type: in vivo, human
[2] = tested on: non-dialysis chronic kidney disease (CKD) patients with anemia; experiment: Study 1: Phase 2 study of compound A in non-dialysis CKD patients with anemia; assay type: in vivo, human
Procedure: The primary objectives of this study were to evaluate the efficacy and safety of the compound in the correction of anemia (i.e. increasing hemoglobin levels) in non-dialysis CKD patients. The study included six dosing cohorts of approximately 24 subjects each. […] Cohort A and cohort B both received a weight-adjusted dose of approximately 1 mg/kg, three times a week for 16 weeks; the dosing in cohort B was reduced to twice a week once anemia was corrected. Cohort C and cohort D received a fixed dose of 50 mg or 100 mg, respectively, three times a week, for 24 weeks. Cohort E received a weight-adjusted dose of approximately 1 mg/kg twice a week, reduced to once a week once anemia was corrected. Cohort F received a fixed dose of 70 mg, three times a week.
Total cholesterol and lipid panels were measured by standard procedures.
Total cholesterol was measured from all subjects in Study 1 or Study 2 as part of the chemistry panel at prespecified time points. […] Total cholesterol decreased initially with treatment, reached a plateau where it remained during treatment, and then returned to baseline after treatment ends.
Frozen serum samples, collected from subjects in Study 1 or Study 2, were selected for the lipid panel analysis based on the following criteria: 1) with matched baseline (D1W1) and; 2) at least one other time point. The complete lipid panel includes: total cholesterol (TC), HDL, LDL-measured, Triglycerides and VLDL (Calculated). Ratio of HDL/LDL or LDL/HDL were analyzed.
A total of n=9 subjects samples were selected and assayed for the complete lipid panel as described above. Subjects on this study protocol were not required to fast nor have any diet restrictions.

cynomolgus monkeys = experiment: Cholesterol levels after repeated oral administration in monkey toxicity studies; assay type: in vivo, cynomolgus monkey
Procedure: During these studies monkeys were fasted prior to each blood collection. Plasma samples were then evaluated at pre-dose and at different time-points for levels of total cholesterol.

[3] = tested on: subjects with end-stage renal disease (ESRD) receiving maintenance hemodialysis; experiment: Study 2: phase 2 study of compound A vs EPO in ESRD subjects on maintenance hemodialysis; assay type: in vivo, human
Description: A total of n=20 subjects were selected and assayed for the complete lipid panel as described above. Subjects on this study protocol were not required to fast nor have any diet restrictions.

PHD1 = PHD1 (Homo sapiens, UniProt Q96KS0); experiment: HIF prolyl hydroxylase enzyme assay, PHD1; assay type: biochemical
PHD1, sequence (Q96KS0 whole entry): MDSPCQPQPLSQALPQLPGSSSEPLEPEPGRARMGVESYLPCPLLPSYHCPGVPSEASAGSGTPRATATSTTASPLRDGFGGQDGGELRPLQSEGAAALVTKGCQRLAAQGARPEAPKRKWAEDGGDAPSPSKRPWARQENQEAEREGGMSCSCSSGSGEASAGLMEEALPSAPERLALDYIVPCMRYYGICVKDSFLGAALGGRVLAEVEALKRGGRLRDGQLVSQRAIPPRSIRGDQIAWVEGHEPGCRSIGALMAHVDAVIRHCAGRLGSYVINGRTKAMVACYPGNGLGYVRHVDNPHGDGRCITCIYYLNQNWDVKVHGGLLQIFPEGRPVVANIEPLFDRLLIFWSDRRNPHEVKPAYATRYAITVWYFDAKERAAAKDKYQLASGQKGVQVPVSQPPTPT
Description: Suitable assay methods are well known in the art.

[4] = baseline, Compound A 3 cohorts n=74, Epoetin alfa n=22
[5] = six subjects with identical time points, FIG. 7
[6] = BL total cholesterol >200 mg/dL, visit D1W1 (baseline)
[7] = BL total cholesterol >200 mg/dL, visit W9
[8] = BL total cholesterol ≦200 mg/dL, visit D1W1 (baseline)
[9] = BL total cholesterol ≦200 mg/dL, visit W9
[10] = n=20, 9 weeks vs baseline, FIG. 8A

With Cc1nc(C(=O)NCC(=O)O)c(O)c2ccc(Oc3ccccc3)cc12 [Compound A, [(4-Hydroxy-1-methyl-7-phenoxy-isoquinoline-3-carbonyl)-amino]-acetic acid] as the compound, how does the “LDL Cholesterol” value (healthy subjects; 0 hours) read?
The value was 95 (36) mg/dL.

What about the “Total Cholesterol” value (healthy subjects; 0 hours) of the same compound?
The value was 165 (33) mg/dL.

What about the “LDL Cholesterol” value (healthy subjects; 1 hours) of the same compound?
Its value is 95 (36) mg/dL.

What about the “Total Cholesterol” value (healthy subjects; 1 hours) of the same compound?
The value was 164 (30) mg/dL.

And the “LDL Cholesterol” value (healthy subjects; 2 hours)?
Its value is 97 (35) mg/dL.

And the “Total Cholesterol” value (healthy subjects; 2 hours)?
The value was 167 (32) mg/dL.

And the “LDL Cholesterol” value (healthy subjects; 24 hours)?
Its value is 96 (36) mg/dL.

And the “Total Cholesterol” value (healthy subjects; 24 hours)?
The value was 161 (31) mg/dL.

What about the “LDL Cholesterol” value (healthy subjects; 72 hours) of the same compound?
Its value is 92 (27) mg/dL.

What about the “Total Cholesterol” value (healthy subjects; 72 hours) of the same compound?
The value was 154 (26) mg/dL.

And the “LDL Cholesterol” value (healthy subjects; 168 hours)?
The value was 77 (31) mg/dL.

What about the “Total Cholesterol” value (healthy subjects; 168 hours) of the same compound?
Its value is 144 (24) mg/dL.

And the “LDL Cholesterol” value (healthy subjects; 240 hours)?
Its value is 78 (29) mg/dL.

What about the “Total Cholesterol” value (healthy subjects; 240 hours) of the same compound?
The value was 144 (23) mg/dL.

What about the “LDL Cholesterol” value (healthy subjects; 408 hours) of the same compound?
The value was 86 (29) mg/dL.

What about the “Total Cholesterol” value (healthy subjects; 408 hours) of the same compound?
The value was 152 (22) mg/dL.

What about the LDL cholesterol change ([1]; Mean (±SD), six weeks, Compound A orally three times a week (n=74) or continued epoetin alfa (n=22)) of the same compound?
The LDL cholesterol change was −25 (22)** mg/dL.

And the “Mean change in LDL-C, decrease” value ([1]; all cohorts, six weeks)?
Its value is 25 mg/dL.

And the “Mean BL LDL Cholesterol” value [1, 4]?
The value was 101.71 mg/dL.

What about the “Mean BL Total Cholesterol” value [1, 4] of the same compound?
Its value is 171.11 mg/dL.

And the “mean total cholesterol over the course of treatment” value ([1]; both groups stratified by BL total cholesterol ≦200 or >200 mg/dL, FIG. 16)?
Its value is “reduction”.

What about the “mean LDL-C over the course of treatment” value ([1]; both groups stratified by BL total cholesterol ≦200 or >200 mg/dL, FIG. 17) of the same compound?
The value was “reduction”.

What about the HDL-C ([1]; six weeks) of the same compound?
Its HDL-C is “showed a decrease”.

And the “total cholesterol by baseline total cholesterol ≦200 or >200 mg/dL” value ([2]; Study 1, FIG. 5)?
Its value is “total cholesterol is reduced in each group”.

And the “total cholesterol over time” value ([2]; all subjects from all cohorts (n=144), during study treatment, FIG. 1)?
Its value is “significant decrease in total cholesterol”.

What about the “LDL, lipid panel” value [2, 5] of the same compound?
Its value is “reduce over the course of treatment”.

What about the “total cholesterol, lipid panel” value [2, 5] of the same compound?
The value was “reduce over the course of treatment”.

And the total cholesterol levels (cynomolgus monkeys; 22-week study, intermittent oral dosing 1, 10, 30 and 40 mg/kg, day 28 to day 152)?
The total cholesterol levels was “dose-dependent decrease in cholesterol levels”.

And the total cholesterol levels (cynomolgus monkeys; 22-week study, intermittent oral dosing 1, 10, 30 and 40 mg/kg, day 28 to day 152, listed as compound A)?
Its total cholesterol levels is “dose dependent decrease in total cholesterol”.

What about the total cholesterol levels (cynomolgus monkeys; 28-Day study, daily oral dosing 1, 10 and 30 mg/kg, day 28) of the same compound?
Its total cholesterol levels is “dose-dependent decrease in cholesterol levels”.

And the total cholesterol levels (cynomolgus monkeys; 28-Day study, daily oral dosing 1, 10 and 30 mg/kg, day 28, listed as compound A)?
Its total cholesterol levels is “dose dependent decrease in total cholesterol”.

What about the cholesterol (cynomolgus monkeys; additional monkey study, up to one year) of the same compound?
Its cholesterol is “decreases in cholesterol were observed and maintained for up to one year”.

And the “reduction in total cholesterol by baseline total cholesterol ≦200 or >200 mg/dL” value ([3]; 19-week study, FIGS. 6A and B)?
Its value is “appears to be larger for the subjects with higher cholesterol at BL”.

What about the LDL [3, 6] of the same compound?
The LDL was 203.40.

What about the “LDL change from BL” value [3, 6] of the same compound?
Its value is 0.00.

And the TC [3, 6]?
The TC was 275.80.

What about the “TC change from BL” value [3, 6] of the same compound?
Its value is 0.00.

And the LDL [3, 7]?
Its LDL is 164.20.

What about the “LDL change from BL” value [3, 7] of the same compound?
The value was −39.20.

What about the TC [3, 7] of the same compound?
The TC was 239.20.

What about the “TC change from BL” value [3, 7] of the same compound?
Its value is −36.60.

What about the LDL [3, 8] of the same compound?
The LDL was 81.20.

What about the “LDL change from BL” value [3, 8] of the same compound?
Its value is 0.00.

What about the TC [3, 8] of the same compound?
Its TC is 157.90.

And the “TC change from BL” value [3, 8]?
Its value is 0.00.

And the LDL [3, 9]?
Its LDL is 62.20.

And the “LDL change from BL” value [3, 9]?
Its value is −19.00.

And the TC [3, 9]?
The TC was 128.20.

And the “TC change from BL” value [3, 9]?
Its value is −29.70.

And the hemoglobin levels ([3]; ESRD patients on dialysis, 0.8 to 3.0 mg/kg three times a week)?
Its hemoglobin levels is “effectively corrected hemoglobin levels”.

What about the “total cholesterol, subjects with or without prior history of hyperlipidemia and/or hypercholesterolemia” value ([3]; Study 2 (6 weeks), FIG. 4) of the same compound?
The value was “reduced the total cholesterol level of subjects in similar fashion”.

What about the “HDL, lipid panel” value [3, 10] of the same compound?
The value was “slight decrease”.

And the “LDL, lipid panel” value [3, 10]?
Its value is “significant reduction”.

What about the “VLDL, lipid panel” value [3, 10] of the same compound?
The value was “significant reduction”.

And the “total cholesterol, lipid panel” value [3, 10]?
The value was “significant reduction”.

What about the “triglycerides, lipid panel” value [3, 10] of the same compound?
Its value is “significant reduction”.

What about the “change in total cholesterol from baseline over time” value ([3]; treated for 19 weeks, FIG. 2) of the same compound?
The value was “significant decrease in total cholesterol”.

What about the pIC50 (PHD1) of the same compound?
Its pIC50 is 5.70 to 6.70.
